The values that follow come from US7109193B2, “Tricyclic diazepines tocolytic oxytocin receptor antagonists” (Wyeth, priority 2001, dated 2006).

For the test, the target named is T1, human vasopressin V2 receptor subtype (Homo sapiens, UniProt P30518).
T1 construct: host or cells: CHO cells (pZeoSV vector)
Briefly: Vasopressin binding in Chinese Hamster Ovary cell membranes expressing human vasopressin V2 subtype receptors. The note with it: 100 nM, CHO cell membranes, [3H]arginine vasopressin, values without parentheses. Put shortly: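 Radioligand displacement on membranes from CHO cells stably expressing human V2 receptor, 25 to 50 μg protein/well, in 50 mM Tris-HCl pH 7.4 with MgCl2, BSA and protease inhibitors. [^3H]arginine vasopressin (8 nM working solution) incubated 60 min at room temperature; bound label measured by filtration and scintillation counting.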

T1 sequence (P30518 whole entry): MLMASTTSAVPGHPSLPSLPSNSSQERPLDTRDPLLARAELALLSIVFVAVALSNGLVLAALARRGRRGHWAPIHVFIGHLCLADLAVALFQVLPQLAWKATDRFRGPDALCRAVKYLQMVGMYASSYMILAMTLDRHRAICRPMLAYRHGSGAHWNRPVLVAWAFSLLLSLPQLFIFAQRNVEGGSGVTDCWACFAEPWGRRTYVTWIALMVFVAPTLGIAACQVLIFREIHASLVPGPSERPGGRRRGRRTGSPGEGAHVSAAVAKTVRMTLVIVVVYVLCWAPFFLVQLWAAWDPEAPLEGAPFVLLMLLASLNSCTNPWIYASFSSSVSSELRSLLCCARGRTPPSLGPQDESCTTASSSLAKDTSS

Turning to `COc1cc(C(=O)N2Cc3ccc(C(=O)NCCC4CCCN4C)n3Cc3ccccc32)ccc1-n1c(C)ccc1C` (stereo not shown) [Example 315, 10-[4-(2,5-Dimethyl-1H-pyrrol-1-yl)-3-methoxybenzoyl]-N-[2-(1-methyl-2-pyrrolidinyl)ethyl]-10,11-dihydro-5H-pyrrolo[2,1-c][1,4]benzodiazepine-3-carboxamide], the inhibition at 0.1 µM is -4%.

With `COc1cccc(-c2cc(OC)c(C(=O)N3Cc4ccc(C(=O)N5CCN(CCCN(C)C)CC5)n4Cc4ccccc43)cc2Cl)c1` [Example 252, {10-[(6-Chloro-3,3′-dimethoxy[1,1′-biphenyl]-4-yl)carbonyl]-10,11-dihydro-5H-pyrrolo[2,1-c][1,4]benzodiazepin-3-yl}{4-[3-(dimethylamino)propyl]-1-piperazinyl}methanone], the inhibition at 0.1 µM is 21%.

On to `Cc1ccccc1-c1ccc(C(=O)N2Cc3ccc(C(=O)N4CCCN(C)CC4)n3Cc3ccccc32)cc1C` [Example 63, {10-[(2,2′-Dimethyl[1,1′-biphenyl]-4-yl)carbonyl]-10,11-dihydro-5H-pyrrolo[2,1-c][1,4]benzodiazepin-3-yl}(4-methyl-1,4-diazepan-1-yl)methanone], for which the inhibition at 0.1 µM turned out to be 9%.

Take `COc1ccccc1-c1ccc(C(=O)N2Cc3ccc(C(=O)N4CCN(C)CC4)n3Cc3ccccc32)cc1OC` [Example 56, {10-[(2,2′-Dimethoxy[1,1′-biphenyl]-4-yl)carbonyl]-10,11-dihydro-5H-pyrrolo[2,1-c][1,4]benzodiazepin-3-yl}(4-methyl-1-piperazinyl)methanone]: the inhibition at 0.1 µM came to 27%.

For `COc1cccc(-c2ccc(C(=O)N3Cc4ccc(C(=O)N5CCN(CCCN(C)C)CC5)n4Cc4ccccc43)cc2C)c1` [Example 248, {4-[3-(Dimethylamino)propyl]-1-piperazinyl}{10-[(3′-methoxy-2-methyl[1,1′-biphenyl]-4-yl)carbonyl]-10,11-dihydro-5H-pyrrolo[2,1-c][1,4]benzodiazepin-3-yl}methanone], the inhibition at 0.1 µM worked out at 7%.

As for `COc1cc(C(=O)N2Cc3ccc(C(=O)N4CCN(C)CC4)n3Cc3ccccc32)ccc1-n1c(C)ccc1C` [Example 306, {10-[4-(2,5-Dimethyl-1H-pyrrol-1-yl)-3-methoxybenzoyl]-10,11-dihydro-5H-pyrrolo[2,1-c][1,4]benzodiazepin-3-yl}(4-methyl-1-piperazinyl)methanone], the inhibition at 0.1 µM came to 0%.

Regarding `COc1cccc(-c2cc(OC)c(C(=O)N3Cc4ccc(C(=O)N[C@@H](Cc5c[nH]cn5)C(N)=O)n4Cc4ccccc43)cc2Cl)c1` [Example 287, N-[(1S)-2-Amino-1-(1H-imidazol-4-ylmethyl)-2-oxoethyl]-10-[(6-chloro-3,3′-dimethoxy[1,1′-biphenyl]-4-yl)carbonyl]-10,11-dihydro-5H-pyrrolo[2,1-c][1,4]benzodiazepine-3-carboxamide], the inhibition at 0.1 µM amounted to 26%.

With `COc1cc(-c2ccccc2C)c(Cl)cc1C(=O)N1Cc2ccc(C(=O)NCCCN(C)C)n2Cc2ccccc21` [Example 78, 10-[(6-Chloro-3-methoxy-2′-methyl[1,1′-biphenyl]-4-yl)carbonyl]-N-[3-(dimethylamino)propyl]-10,11-dihydro-5H-pyrrolo[2,1-c][1,4]benzodiazepine-3-carboxamide], the inhibition at 0.1 µM was 14%.

As to `O=C(c1ccc(-c2ccccc2)nc1)N1Cc2cccn2Cc2ccccc21` [Example 29, (6-Phenyl-pyridin-3-yl)-[10,11-dihydro-5H-pyrrolo[2,1-c][1,4]benzodiazepin-10-yl]methanone], the inhibition at 0.1 µM turned out to be 24%.

As for `COc1ccccc1-c1ccc(C(=O)N2Cc3ccc(C(=O)N[C@@H](Cc4c[nH]cn4)C(N)=O)n3Cc3ccccc32)cc1OC` [Example 286, N-[(1S)-2-Amino-1-(1H-imidazol-4-ylmethyl)-2-oxoethyl]-10-[(2,2′-dimethoxy[1,1′-biphenyl]-4-yl)carbonyl]-10,11-dihydro-5H-pyrrolo[2,1-c][1,4]benzodiazepine-3-carboxamide], the inhibition at 0.1 µM turned out to be 27%.

Consider `COc1cccc(-c2ccc(C(=O)N3Cc4ccc(C(=O)N5CCN(C)CC5)n4Cc4ccccc43)cc2C)c1` [Example 51, {10-[(3′-Methoxy-2-methyl[1,1′-biphenyl]-4-yl)carbonyl]-10,11-dihydro-5H-pyrrolo[2,1-c][1,4]benzodiazepin-3-yl}(4-methyl-1-piperazinyl)methanone], for which the inhibition at 0.1 µM is 17%.

For `COc1cc(C(=O)N2Cc3ccc(C(=O)n4ccnc4)n3Cc3ccccc32)ccc1-c1ccccc1C` [Example 290, 1H-Imidazol-1-yl-{10-[(2-methoxy-2′-methyl[1,1′-biphenyl]-4-yl)carbonyl]-10,11-dihydro-5H-pyrrolo[2,1-c][1,4]benzodiazepin-3-yl}methanone], the inhibition at 0.1 µM was -6%.

With `COc1cc(C(=O)N2Cc3ccc(C(=O)N4CCN(C)CC4)n3Cc3ccccc32)ccc1-c1cccc2ccccc12` [Example 55, {10-[3-Methoxy-4-(1-naphthyl)benzoyl]-10,11-dihydro-5H-pyrrolo[2,1-c][1,4]benzodiazepin-3-yl}(4-methyl-1-piperazinyl)methanone], the inhibition at 0.1 µM came out at 30%.

Take `COc1cc(C(=O)N2Cc3ccc(C(=O)N4CCC(N5CCCC5)CC4)n3Cc3ccccc32)ccc1-n1c(C)ccc1C` [Example 313, {10-[4-(2,5-Dimethyl-1H-pyrrol-1-yl)-3-methoxybenzoyl]-10,11-dihydro-5H-pyrrolo[2,1-c][1,4]benzodiazepin-3-yl}[4-(1-pyrrolidinyl)-1-piperidinyl]methanone]: the inhibition at 0.1 µM was 2%.

Take `Cc1cc(C(=O)N2Cc3ccc(C(=O)N[C@H]4CN5CCC4CC5)n3Cc3ccccc32)ccc1-c1ccccc1C(F)(F)F` [Example 301, N-[(3R)-1-Azabicyclo[2.2.2]oct-3-yl]-10-{[2-methyl-2′-(trifluoromethyl)[1,1′-biphenyl]-4-yl]carbonyl}-10,11-dihydro-5H-pyrrolo[2,1-c][1,4]benzodiazepine-3-carboxamide]: the inhibition at 0.1 µM turned out to be 9%.

Take `COc1cccc(-c2ccc(C(=O)N3Cc4ccc(C(=O)NCCCN(C)C)n4Cc4ccccc43)cc2C)c1` [Example 74, N-[3-(Dimethylamino)propyl]-10-[(3′-methoxy-2-methyl[1,1′-biphenyl]-4-yl)carbonyl]-10,11-dihydro-5H-pyrrolo[2,1-c][1,4]benzodiazepine-3-carboxamide]: the inhibition at 0.1 µM turned out to be 14%.

Turning to `Cc1ccccc1-c1ccc(C(=O)N2Cc3ccc(C(=O)N4CCN(CCCN(C)C)CC4)n3Cc3ccccc32)cc1C` [Example 247, {4-[3-(Dimethylamino)propyl]-1-piperazinyl}{10-[(2,2′-dimethyl[1,1′-biphenyl]-4-yl)carbonyl]-10,11-dihydro-5H-pyrrolo[2,1-c][1,4]benzodiazepin-3-yl}methanone], the inhibition at 0.1 µM is 21%.

Turning to `Cc1cc(C(=O)N2Cc3cccn3Cc3ccccc32)cc(C)c1-n1c(C)ccc1C` [Example 30, [4-(2,5-Dimethyl-1H-pyrrol-1-yl)-3,5-dimethyl-phenyl][10,11-dihydro-5H-pyrrolo[2,1-c][1,4]benzodiazepin-10-yl]methanone], the inhibition at 0.1 µM stood at 3%.

With `Cc1ccccc1-c1ccc(C(=O)N2Cc3ccc(C(=O)NCCCN(C)C)n3Cc3ccccc32)cc1` [Example 76, N-[3-(Dimethylamino)propyl]-10-[(2′-methyl[1,1′-biphenyl]-4-yl)carbonyl]-10,11-dihydro-5H-pyrrolo[2,1-c][1,4]benzodiazepine-3-carboxamide], the inhibition at 0.1 µM was found to be 17%.
